Reference: patent US6933282B2, “Regulation of tyrosine hydroxylase by GPE” (Neuren Pharmaceuticals Ltd., priority 1998, dated 2005)

How the values were obtained:
Assay type in all cases: in vivo, rat
[1] = system: tyrosine hydroxylase (TH); test: Example 1: TH immunopositive neuron count in SNc after 6-OHDA lesion, GPE given 2 hours later; settings: lesioned (right) side; 3 μg GPE via guide cannula 2 hours after 6-OHDA; 14 days; 3 levels of SNc; vs vehicle; FIG. 1
Protocol: This experiment was blind with respect to the treatment (with GPE or the vehicle) and with respect to the counting of neurons expressing TH (between sections from animals treated with GPE or vehicle).
(§1) The objective of this experiment was to determine the effects of administering GPE on the expression of tyrosine hydroxylase (TH) in the presence or absence of CNS injury. […] Specifically, 9 pairs of adult male Wistar rats (280-320 g) were prepared under 3% halothane/O2 anaesthesia. The oxygen free radical producing neurotoxin 6-hydroxydopamine (6-OHDA) which produces degeneration of dopamine neurones (8 μg/2 μl) was injected into the median forebrain bundle using a 30 gauge needle (coordinates: anterior-posterior +4.7 mm, right +1.6 mm, vertical −8.5 mm). A guide cannula was placed on the dura 7.5 mm anterior from stereotaxic zero and 1.5 mm from the midline on the right. The rats were left to recover at room temperature. 2 hours after the administration of 6-OHDA the rats were treated, via the guide cannula, with 3μg GPE or vehicle alone (15μl injected with a pump rate of 2 μl/minute, 0.1M acetate buffer [pH6], diluted 10 times in 0.1 bovine serum albumin in 0.1M phosphate buffered saline [PBS][pH7.31]). […]
(§2) The total counts of neurons were compared between the GPE and the vehicle treated group. Data were analysed with paired t-test and presented as mean±sem.

[2] = system: tyrosine hydroxylase (TH); test: Example 2: TH immunopositive neuron count in SNc after 6-OHDA lesion, second set of rats; settings: 3 μg GPE 2 hours after 6-OHDA; 2 levels of SNc counted; vs vehicle; FIG. 2
Protocol: as §1, §2
Example 2 was performed using a second set of rats (9 pairs), using the same experimental parameters except that only the immunopositive neurons at 2 levels of the SNc were counted.

[3] = system: tyrosine hydroxylase (TH); test: Example 3: TH immunostaining density and TH positive neuron number in SNc after 6-OHDA lesion
Protocol: A paired experimental design was used and the experimenter was blinded to the treatment groups. Eighteen male Wistar rats (50-60 days old, 280-310 g) were used for this study. 6-hydroxy dopamine (6-OHDA) was prepared as 8 μg in a base of 2 μl 0.9% saline containing 1% ascorbic acid. It was administered into the right medial forebrain bundle (MFB) using coordinates of AP+4.7 mm, R 1.6 mm, V−8 mm under anaesthesia of 3% halothane. 6-OHDA was injected into the right MFB using a Hamilton syringe (100 μl with a 30G needle) controlled by a microdialysis infusion pump at an infusion rate of 0.2 μl/minute. The infusion needle was then slowly withdrawn 5 minutes after the infusion. […] Briefly, a guide cannula (21G, 6 mm) was fixed on the top of the dura with coordinates of AP+7.5 mm, R 1.5 mm immediately after the injection of 6-OHDA. Either GPE (3 μg/15 μl) or its vehicle were infused into the right lateral ventricle 2 hours later at an infusion rate of 2 μl/minute. Rats were then housed in a holding room with food and water ad libitum for the next 2 weeks.
The rats were then deeply anaesthetized with an overdose of pentobarbital and transcardially perfused with normal saline followed by 10% buffered formalin. The brains were removed from the skull and kept in the same fixative for the next 48 hours. A standard paraffin tissue preparation was used to process the tissue so that it could be used for immunohistochemistry. Coronal sections (8 μm) were cut using a microtome, and the sections were mounted on chrome alum coated microscopy slides and air-dried. SNc sections used for immunohistochemical staining were deparaffinized, rehydrated and washed in PBS (0.1M). The sections were then pretreated with 1% H2O2 for 20 minutes, washed with 0.1M PBS (3×5 minutes) and incubated with rabbit polyclonal antisera raised against tyrosine hydroxylase (Protos Biotech, USA) diluted 1:500 with 1% goat serum for 48 hours at 4° C. The sections were washed in PBS (3×5 minutes) and incubated with donkey anti-rabbit biotinylated secondary antibody (1:200, Amersham, Life Science) overnight at room temperature. The sections were washed, incubated in streptavidin-biotinylated horseradish peroxidase (1:200, Amersham, Life Science) for 3 hours, washed again in PBS and then reacted in 0.05% 3,3-diaminobenzidine tetrahydrochloride (DAB) and 0.01% H2O2 to produce a brown reaction product. The sections were dehydrated in a graded alcohol series, cleared in xylene and coverslipped with mounting medium.
The average density from the background was also measured. The analyst was blinded to the treatment and control groups. The difference in average density between the background and TH immunostaining was calculated and used for data analysis. […]

[4] = system: tyrosine hydroxylase (TH); test: Example 4: survival of TH immunopositive nigral neurons after medial forebrain bundle transection; settings: lesioned side; daily supranigral GPE 0.3 μg/μl, 1 μl, for two weeks after MFB transection; ipsilateral/contralateral; FIG. 5
Protocol: Adult male Wistar rats (200-220 g) were anaesthetized with 75 mg/kg Nembutal and positioned in a stereotaxic apparatus. Unilateral transection of the medial forebrain bundle which contains the ascending nigral dopaminergic projection fibers was made 1.3 mm rostral to the rostral tip of the SNc using a retractable wire knife (David Kopf Instruments, Tujunga, Calif.). The knife was lowered into the brain using the following coordinates from the atlas of Paxinos and Watson (1986), Sydney: Academic Press: 3.3 mm posterior to Bregma, 2.4 mm lateral from midline, and 8.5 mm ventral from skull, the blade was extended 2.0 mm toward midline, raised 2.5 mm dorsally, retracted and extended again, and then returned 2.5 mm ventrally. The wire blade was retracted and the knife withdrawn. Next, a 22-gauge metal guide cannula was permanently fixed into place supranigrally at 5.0 mm posterior to Bregma, 2.0 mm lateral to midline, and 6.8 mm ventral to skull. […]
Immunopositive cells were counted in the central SNc Counts were made ventral and lateral to the lemniscus medialis, including both the pars compacta and pars reticulata, but excluding the ventral tegmental area in the ventromedial midbrain and the retrorubral field in the caudolateral midbrain. […] To reveal percent survival, percent changes were calculated by dividing the ipsilateral value by contralateral value.

Substance: Gly-Pro-Glu [GPE]
- number of TH immunopositive dopaminergic neurons [1]: increased
- TH expression (number of TH immunopositive neurons) [2]: upregulation of TH expression
- loss of TH immunopositive neurons in the SNc ([3]; compared to the control group, 6-OHDA lesion): prevented the loss
- density of TH immunostaining in cytoplasm and processes of neurons ([3]; ipsilateral SNc, GPE intraventricularly 2 hours after 6-OHDA, FIG. 4): restored
- neuronal survival (TH immunopositive neurons, R/L ratio) ([3]; most caudal level of SNc, GPE 3 μg/15 μl into right lateral ventricle 2 hours after 6-OHDA, 2 weeks, mean±SEM): 60±13.0%
- restoration in TH immunoreactivity (density of TH immunostaining, R/L ratio) ([3]; most caudal level of SNc, GPE 3 μg/15 μl into right lateral ventricle 2 hours after 6-OHDA, 2 weeks, mean±SEM, FIG. 3): 99.6±27%
- percent cell survival of TH immunopositive neurons [4]: increased
